In publication PMC12361428 (Nature Communications, 2025):
Where “and” joins values, the source holds several entries; their conditions need not be identical. Equal entries are not always repeated.

Key:
Nluc-A3AR WT = target: T1, Nluc-A3AR WT (Homo sapiens, UniProt P0DMS8); experiment: biochemical; type: binding; details: WT, read-out: normalised XAC-630 binding
T1 construct: expressed in transfected cells; host or cells: HEK293a
Experimental: (§1) All experiments were performed in duplicate.
(§2) Data were expressed as the mean ± standard error. All binding and Trupath data were analysed using the nonlinear regression curve-fitting programme with Prism 10 (GraphPad, San Diego, CA, USA). For nanoBRET saturation binding experiments, specific binding was calculated by subtracting non-specific binding (defined as binding in the presence of 10 µM MRS1220) from total binding. Specific binding data in each experiment were then normalised to the maximal binding (Bmax) of WT and fit to a one-site specific binding equation: Y =Bmax*[X]/(Kd + [X]). For nanoBRET competition binding experiments, data were normalised to total and non-specific binding responses and fit to a one-site—Fit Ki equation. […] Significant differences vs WT were determined by one-way ANOVA with a Dunnett’s multiple comparison test.

Nluc-A3AR Y15A^1.35 = target: T2, Nluc-A3AR Y15A^1.35 (Homo sapiens, UniProt P0DMS8, Y15A); experiment: biochemical; type: binding; details: Y15A; log[adenosine] -8; read-out: normalised XAC-630 binding
T2 construct: expressed in transfected cells; host or cells: HEK293a
Experimental: as §1
(§3) Data were expressed as the mean ± standard error. All binding and Trupath data were analysed using the nonlinear regression curve-fitting programme with Prism 10 (GraphPad, San Diego, CA, USA). For nanoBRET saturation binding experiments, specific binding was calculated by subtracting non-specific binding (defined as binding in the presence of 10 µM MRS1220) from total binding. Specific binding data in each experiment were then normalised to the maximal binding (Bmax) of WT and fit to a one-site specific binding equation: Y =Bmax*[X]/(Kd + [X]). For nanoBRET competition binding experiments, data were normalised to total and non-specific binding responses and fit to a one-site—Fit Ki equation. Trupath's experimental data was baseline-corrected to the initial four baseline reads and then adjusted to the buffer control response. The area under the curve (AUC) for each response was calculated and plotted with a non-linear regression curve (log[agonist] vs response, three-parameter model), using the equation: Y = Bottom + (Top–Bottom)/(1 + 10^((LogEC50-X))). Here, X represents the log dose of the agonist, Y is the BRET2 AUC response, Top and Bottom are the curve plateaus, and EC50 is the agonist concentration yielding a response halfway between the Bottom and Top values. […] The efficacy of the agonists (τA) was separately calculated using the Black–Leff operational model of agonism[79] using KA values from Table 2 and then corrected for receptor expression relative to WT using Bmax values from Table 1[80]. Significant differences vs WT were determined by one-way ANOVA with a Dunnett’s multiple comparison test.

Nluc-A3AR S73A^2.65 = target: T3, Nluc-A3AR S73A^2.65 (Homo sapiens, UniProt P0DMS8, S73A); experiment: biochemical; type: binding; details: S73A, read-out: normalised XAC-630 binding
T3 construct: expressed in transfected cells; host or cells: HEK293a
Experimental: as §1, §2

Nluc-A3AR T94A^3.36 = target: T4, Nluc-A3AR T94A^3.36 (Homo sapiens, UniProt P0DMS8, T94A); experiment: biochemical; type: binding; details: T94A, read-out: normalised XAC-630 binding
T4 construct: expressed in transfected cells; host or cells: HEK293a
Experimental: as §1, §3

Nluc-A3AR H95A^3.37 = target: T5, Nluc-A3AR H95A^3.37 (Homo sapiens, UniProt P0DMS8, H95A); experiment: biochemical; type: binding; details: H95A, read-out: normalised XAC-630 binding
T5 construct: expressed in transfected cells; host or cells: HEK293a
Experimental: as §1
(§4) Data were expressed as the mean ± standard error. All binding and Trupath data were analysed using the nonlinear regression curve-fitting programme with Prism 10 (GraphPad, San Diego, CA, USA). For nanoBRET saturation binding experiments, specific binding was calculated by subtracting non-specific binding (defined as binding in the presence of 10 µM MRS1220) from total binding. Specific binding data in each experiment were then normalised to the maximal binding (Bmax) of WT and fit to a one-site specific binding equation: Y =Bmax*[X]/(Kd + [X]). For nanoBRET competition binding experiments, data were normalised to total and non-specific binding responses and fit to a one-site—Fit Ki equation. Trupath's experimental data was baseline-corrected to the initial four baseline reads and then adjusted to the buffer control response. The area under the curve (AUC) for each response was calculated and plotted with a non-linear regression curve (log[agonist] vs response, three-parameter model), using the equation: Y = Bottom + (Top–Bottom)/(1 + 10^((LogEC50-X))). Here, X represents the log dose of the agonist, Y is the BRET2 AUC response, Top and Bottom are the curve plateaus, and EC50 is the agonist concentration yielding a response halfway between the Bottom and Top values. […] Significant differences vs WT were determined by one-way ANOVA with a Dunnett’s multiple comparison test. Significance levels are indicated as follows: P ≤ 0.0001****, P = 0.0001–0.001***, P = 0.001–0.01**, and P = 0.01–0.05*.

Nluc-A3AR H95F^3.37 = target: T6, Nluc-A3AR H95F^3.37 (Homo sapiens, UniProt P0DMS8, H95F); experiment: biochemical; type: binding; details: H95F; log[adenosine] -8; read-out: normalised XAC-630 binding
T6 construct: expressed in transfected cells; host or cells: HEK293a
Experimental: as §1, §4

Nluc-A3AR V169E^45.53 = target: T7, Nluc-A3AR V169E^45.53 (Homo sapiens, UniProt P0DMS8, V169E); experiment: biochemical; type: binding; details: V169E, read-out: normalised XAC-630 binding
T7 construct: expressed in transfected cells; host or cells: HEK293a
Experimental: as §1, §4

Nluc-A3AR M174A^5.35 = target: T8, Nluc-A3AR M174A^5.35 (Homo sapiens, UniProt P0DMS8, M174A); experiment: biochemical; type: binding; details: M174A, read-out: normalised XAC-630 binding
T8 construct: expressed in transfected cells; host or cells: HEK293a
Experimental: as §1, §3

Nluc-A3AR Y265A^7.36 = target: T9, Nluc-A3AR Y265A^7.36 (Homo sapiens, UniProt P0DMS8, Y265A); experiment: biochemical; type: binding; details: Y265A, read-out: normalised XAC-630 binding
T9 construct: expressed in transfected cells; host or cells: HEK293a
Experimental: as §1, §3

Nluc-A3AR S271A^7.42 = target: T10, Nluc-A3AR S271A^7.42 (Homo sapiens, UniProt P0DMS8, S271A); experiment: biochemical; type: binding; details: S271A, read-out: normalised XAC-630 binding
T10 construct: expressed in transfected cells; host or cells: HEK293a
Experimental: as §1, §2

A3AR Y15A^1.35 = target: T11, A3AR Y15A^1.35 (Homo sapiens, UniProt P0DMS8, Y15A); experiment: Gαi1 activation, TruPath BRET assay in HEK293a cells; type: cell-based
T11 construct: expressed in transfected cells; host or cells: HEK293a
T11 sequence (P0DMS8 1-318 Y15A): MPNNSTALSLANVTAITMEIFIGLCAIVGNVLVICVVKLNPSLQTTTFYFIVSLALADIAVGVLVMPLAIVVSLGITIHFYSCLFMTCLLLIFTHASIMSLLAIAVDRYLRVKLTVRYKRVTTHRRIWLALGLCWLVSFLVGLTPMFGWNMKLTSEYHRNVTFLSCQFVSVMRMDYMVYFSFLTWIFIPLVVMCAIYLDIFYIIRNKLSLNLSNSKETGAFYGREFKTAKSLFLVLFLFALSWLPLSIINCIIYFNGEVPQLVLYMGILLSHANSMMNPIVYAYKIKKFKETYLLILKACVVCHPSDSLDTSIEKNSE
Experimental: PEI was added at a 6:1 PEI-to-DNA ratio. Two days post-transfection, plates were washed twice with BRET buffer (HBSS with 10 mM HEPES, pH 7.4). After a 30-min incubation at 37 °C, plates were placed in a PHERAstar plate reader at 37 °C, and four baseline readings were taken using BRET2 filters at 410 ± 80 nm and 515 ± 30 nm. […] BRET2 ratios were calculated as the ratio of GFP2 emission (515 ± 30 nm) to RLuc8 emission (410 ± 80 nm).
Data were expressed as the mean ± standard error. All binding and Trupath data were analysed using the nonlinear regression curve-fitting programme with Prism 10 (GraphPad, San Diego, CA, USA). For nanoBRET saturation binding experiments, specific binding was calculated by subtracting non-specific binding (defined as binding in the presence of 10 µM MRS1220) from total binding. Specific binding data in each experiment were then normalised to the maximal binding (Bmax) of WT and fit to a one-site specific binding equation: Y =Bmax*[X]/(Kd + [X]). For nanoBRET competition binding experiments, data were normalised to total and non-specific binding responses and fit to a one-site—Fit Ki equation. Trupath's experimental data was baseline-corrected to the initial four baseline reads and then adjusted to the buffer control response. The area under the curve (AUC) for each response was calculated and plotted with a non-linear regression curve (log[agonist] vs response, three-parameter model), using the equation: Y = Bottom + (Top–Bottom)/(1 + 10^((LogEC50-X))). Here, X represents the log dose of the agonist, Y is the BRET2 AUC response, Top and Bottom are the curve plateaus, and EC50 is the agonist concentration yielding a response halfway between the Bottom and Top values. To determine efficacy values. The efficacy of the agonists (τA) was separately calculated using the Black–Leff operational model of agonism[79] using KA values from Table 2 and then corrected for receptor expression relative to WT using Bmax values from Table 1[80]. Significant differences vs WT were determined by one-way ANOVA with a Dunnett’s multiple comparison test. Significance levels are indicated as follows: P ≤ 0.0001****, P = 0.0001–0.001***, P = 0.001–0.01**, and P = 0.01–0.05*.

A3AR S73A^2.65 = target: T12, A3AR S73A^2.65 (Homo sapiens, UniProt P0DMS8, S73A); experiment: as above; type: cell-based
T12 construct: expressed in transfected cells; host or cells: HEK293a
Experimental: (§5) Two days post-transfection, plates were washed twice with BRET buffer (HBSS with 10 mM HEPES, pH 7.4). After a 30-min incubation at 37 °C, plates were placed in a PHERAstar plate reader at 37 °C, and four baseline readings were taken using BRET2 filters at 410 ± 80 nm and 515 ± 30 nm. […] BRET2 ratios were calculated as the ratio of GFP2 emission (515 ± 30 nm) to RLuc8 emission (410 ± 80 nm).
(§6) Data were expressed as the mean ± standard error. All binding and Trupath data were analysed using the nonlinear regression curve-fitting programme with Prism 10 (GraphPad, San Diego, CA, USA). […] Trupath's experimental data was baseline-corrected to the initial four baseline reads and then adjusted to the buffer control response. The area under the curve (AUC) for each response was calculated and plotted with a non-linear regression curve (log[agonist] vs response, three-parameter model), using the equation: Y = Bottom + (Top–Bottom)/(1 + 10^((LogEC50-X))). Here, X represents the log dose of the agonist, Y is the BRET2 AUC response, Top and Bottom are the curve plateaus, and EC50 is the agonist concentration yielding a response halfway between the Bottom and Top values. […] Significant differences vs WT were determined by one-way ANOVA with a Dunnett’s multiple comparison test.

A3AR T94A^3.36 = target: T13, A3AR T94A^3.36 (Homo sapiens, UniProt P0DMS8, T94A); experiment: as above; type: cell-based
T13 construct: expressed in transfected cells; host or cells: HEK293a
Experimental: PEI was added at a 6:1 PEI-to-DNA ratio.
Data were expressed as the mean ± standard error. All binding and Trupath data were analysed using the nonlinear regression curve-fitting programme with Prism 10 (GraphPad, San Diego, CA, USA). For nanoBRET saturation binding experiments, specific binding was calculated by subtracting non-specific binding (defined as binding in the presence of 10 µM MRS1220) from total binding. Specific binding data in each experiment were then normalised to the maximal binding (Bmax) of WT and fit to a one-site specific binding equation: Y =Bmax*[X]/(Kd + [X]). For nanoBRET competition binding experiments, data were normalised to total and non-specific binding responses and fit to a one-site—Fit Ki equation. Trupath's experimental data was baseline-corrected to the initial four baseline reads and then adjusted to the buffer control response. The area under the curve (AUC) for each response was calculated and plotted with a non-linear regression curve (log[agonist] vs response, three-parameter model), using the equation: Y = Bottom + (Top–Bottom)/(1 + 10^((LogEC50-X))). […] Significant differences vs WT were determined by one-way ANOVA with a Dunnett’s multiple comparison test. […]

A3AR H95A^3.37 = A3AR H95A^3.37 (Homo sapiens, UniProt P0DMS8, H95A); experiment: as above
Experimental: as §5, §6

A3AR S271A^7.42 = A3AR S271A^7.42 (Homo sapiens, UniProt P0DMS8, S271A); experiment: as above
Chain of A3AR S271A^7.42 (P0DMS8 whole entry S271A): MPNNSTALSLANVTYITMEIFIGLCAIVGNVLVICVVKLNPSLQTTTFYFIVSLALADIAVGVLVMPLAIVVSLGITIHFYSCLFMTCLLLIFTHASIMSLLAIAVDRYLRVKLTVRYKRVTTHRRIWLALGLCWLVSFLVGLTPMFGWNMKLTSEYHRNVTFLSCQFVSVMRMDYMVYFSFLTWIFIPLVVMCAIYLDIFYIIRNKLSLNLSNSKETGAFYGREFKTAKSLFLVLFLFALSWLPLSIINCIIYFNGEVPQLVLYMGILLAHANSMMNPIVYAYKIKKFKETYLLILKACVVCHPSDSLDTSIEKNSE
Experimental: as §5, §6

T10 sequence (P0DMS8 whole entry S271A): as above
T5 sequence (P0DMS8 whole entry H95A): as the sequence (P0DMS8 whole entry S271A) above, with H95A, A271S counted along it
T7 sequence (P0DMS8 whole entry V169E): as the sequence (P0DMS8 whole entry S271A) above, with V169E, A271S counted along it
T4 sequence (P0DMS8 whole entry T94A): as the sequence (P0DMS8 whole entry S271A) above, with T94A, A271S counted along it
T3 sequence (P0DMS8 whole entry S73A): as the sequence (P0DMS8 whole entry S271A) above, with S73A, A271S counted along it
T1 sequence (P0DMS8 whole entry): as the sequence (P0DMS8 whole entry S271A) above, with A271S counted along it
T9 sequence (P0DMS8 whole entry Y265A): as the sequence (P0DMS8 whole entry S271A) above, with Y265A, A271S counted along it
Chain of A3AR H95A^3.37 (P0DMS8 whole entry H95A): as the sequence (P0DMS8 whole entry S271A) above, with H95A, A271S counted along it
T13 sequence (P0DMS8 whole entry T94A): as the sequence (P0DMS8 whole entry S271A) above, with T94A, A271S counted along it
T12 sequence (P0DMS8 whole entry S73A): as the sequence (P0DMS8 whole entry S271A) above, with S73A, A271S counted along it
T8 sequence (P0DMS8 whole entry M174A): as the sequence (P0DMS8 whole entry S271A) above, with M174A, A271S counted along it
T6 sequence (P0DMS8 whole entry H95F): as the sequence (P0DMS8 whole entry S271A) above, with H95F, A271S counted along it

Nc1ncnc2c1ncn2[C@@H]1O[C@H](CO)[C@@H](O)[C@H]1O [Adenosine, adenosine]
remaining activity at 1 µM (Nluc-A3AR WT; log[adenosine] -6): 103% | remaining activity at 0.1 µM (Nluc-A3AR WT; log[adenosine] -7): 102% | remaining activity at 0.01 µM (Nluc-A3AR WT; log[adenosine] -8): 100% | remaining activity at 0.01 µM (Nluc-A3AR Y15A^1.35): 100% | remaining activity at 10 µM (Nluc-A3AR S73A^2.65; log[adenosine] -5): 82.6% | remaining activity at 1 µM (Nluc-A3AR S73A^2.65; log[adenosine] -6): 100% | remaining activity at 0.1 µM (Nluc-A3AR S73A^2.65; log[adenosine] -7): 100% | remaining activity at 0.01 µM (Nluc-A3AR S73A^2.65; log[adenosine] -8): 100% | remaining activity at 1 µM (Nluc-A3AR T94A^3.36; log[adenosine] -6): 100% | remaining activity at 0.1 µM (Nluc-A3AR T94A^3.36; log[adenosine] -7): 103% | remaining activity at 0.01 µM (Nluc-A3AR T94A^3.36; log[adenosine] -8): 100% | remaining activity at 1000 µM (Nluc-A3AR H95A^3.37; log[adenosine] -3): 24% | remaining activity at 100 µM (Nluc-A3AR H95A^3.37; log[adenosine] -4): 82.5% | remaining activity at 10 µM (Nluc-A3AR H95A^3.37; log[adenosine] -5): 97.8% | remaining activity at 1 µM (Nluc-A3AR H95A^3.37; log[adenosine] -6): 105% | remaining activity at 0.1 µM (Nluc-A3AR H95A^3.37; log[adenosine] -7): 95.8% | remaining activity at 0.01 µM (Nluc-A3AR H95A^3.37; log[adenosine] -8): 100% | remaining activity at 0.01 µM (Nluc-A3AR H95F^3.37): 100% | remaining activity at 100 µM (Nluc-A3AR V169E^45.53; log[adenosine] -4): 37.3% | remaining activity at 10 µM (Nluc-A3AR V169E^45.53; log[adenosine] -5): 78.7% | remaining activity at 1 µM (Nluc-A3AR V169E^45.53; log[adenosine] -6): 98% | remaining activity at 0.1 µM (Nluc-A3AR V169E^45.53; log[adenosine] -7): 95.5% | remaining activity at 0.01 µM (Nluc-A3AR V169E^45.53; log[adenosine] -8): 100% | remaining activity at 1 µM (Nluc-A3AR M174A^5.35; log[adenosine] -6): 100% | remaining activity at 0.01 µM (Nluc-A3AR M174A^5.35; log[adenosine] -8): 101% | remaining activity at 100 µM (Nluc-A3AR Y265A^7.36; log[adenosine] -4): 69.6% | remaining activity at 10 µM (Nluc-A3AR Y265A^7.36; log[adenosine] -5): 94.1% | remaining activity at 1 µM (Nluc-A3AR Y265A^7.36; log[adenosine] -6): 97.4% | remaining activity at 0.1 µM (Nluc-A3AR Y265A^7.36; log[adenosine] -7): 99.2% | remaining activity at 0.01 µM (Nluc-A3AR Y265A^7.36; log[adenosine] -8): 100% | remaining activity at 1000 µM (Nluc-A3AR S271A^7.42; log[adenosine] -3): 90.4% | remaining activity at 100 µM (Nluc-A3AR S271A^7.42; log[adenosine] -4): 102% | remaining activity at 10 µM (Nluc-A3AR S271A^7.42; log[adenosine] -5): 100% | remaining activity at 1 µM (Nluc-A3AR S271A^7.42; log[adenosine] -6): 104% | remaining activity at 0.1 µM (Nluc-A3AR S271A^7.42; log[adenosine] -7): 105% | remaining activity at 0.01 µM (Nluc-A3AR S271A^7.42; log[adenosine] -8): 100% | log τ (efficacy, operational model, corrected for receptor expression) (A3AR Y15A^1.35): 0.6 ± 0.3 | ∆∆BRET Emax (A3AR Y15A^1.35): 0.19 ± 0.02 | Gαi1 activation response (Figure 7F), individual replicates (A3AR Y15A^1.35; log [agonist] -3): 0.171 and 0.1858 and 0.1817 | Gαi1 activation response (Figure 7F), individual replicates (A3AR Y15A^1.35; log [agonist] -4): 0.1266 and 0.1086 and 0.09084 | Gαi1 activation response (Figure 7F), individual replicates (A3AR Y15A^1.35; log [agonist] -5): 0.08727 and 0.0349 and 0.02463 | Gαi1 activation response (Figure 7F), individual replicates (A3AR Y15A^1.35; log [agonist] -6): 0.02891 and 0.02444 and 0.02972 | Gαi1 activation response (Figure 7F), individual replicates (A3AR Y15A^1.35; log [agonist] -7): 0.01513 and 0.03836 and 0.02349 | Gαi1 activation response (Figure 7F), individual replicates (A3AR Y15A^1.35; log [agonist] -8): 0.0199 and 0.02219 and 0.02387 | Gαi1 activation response (Figure 7F), individual replicates (A3AR Y15A^1.35; log [agonist] -9): 0.02702 and 0.04406 and 0.02415 | log τ (efficacy, operational model, corrected for receptor expression) (A3AR S73A^2.65): 1.4 ± 0.07 | ∆∆BRET Emax (A3AR S73A^2.65): 1.49 ± 0.04 | log τ (efficacy, operational model, corrected for receptor expression) (A3AR T94A^3.36): 0.8 ± 0.09 | ∆∆BRET Emax (A3AR T94A^3.36): 0.49 ± 0.04 | log τ (efficacy, operational model, corrected for receptor expression) (A3AR H95A^3.37): 0.3 ± 0.3 | ∆∆BRET Emax (A3AR H95A^3.37): 0.63 ± 0.12 | ∆∆BRET Emax (A3AR S271A^7.42): 0.70 ± 0.15
